Source: the supplement of paper PMC10733146

Legend:
Test in all cases: viability relative to DMSO control (fraction); higher = less drug effect (more viable cells)
Settings in all cases: 48 h
Pralatrexate = compound: C#CCC(Cc1cnc2nc(N)nc(N)c2n1)c1ccc(C(=O)N[C@@H](CCC(=O)O)C(=O)O)cc1 [Pralatrexate]
Outline: (§1)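 Using 384-well plates with compounds already plated at five concentrations, one well per concentration, 4 × 10^4 primary mononuclear tumour cells were added per well. Cells were Ficoll-isolated from blood or bone marrow or came from processed lymph node, fresh or cryopreserved. They were kept for 48 h at 37 °C and 5% CO2 in RPMI-1640 supplemented with penicillin/streptomycin, L-glutamine and human serum, and viability was read as CellTiter-Glo luminescence relative to the median of 16 inner DMSO wells.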

Pacritinib = compound: C1=N/C2=N/c3ccc(OCCN4CCCC4)c(c3)COC/C=C/COCc3cccc(c3)C(=C1)N2 [Pacritinib]
Outline: as §1

Nilotinib = compound: Cc1cn(-c2cc(NC(=O)c3ccc(C)c(Nc4nccc(-c5cccnc5)n4)c3)cc(C(F)(F)F)c2)cn1 [Nilotinib]
Outline: as §1

AZD7762 = compound: NC(=O)Nc1cc(-c2cccc(F)c2)sc1C(=O)N[C@H]1CCCNC1 [AZD7762]
Outline: as §1

Test System | viability (Pralatrexate; 0.024 µM) | viability (Pralatrexate; 0.12 µM) | viability (Pralatrexate; 0.6 µM) | viability (Pralatrexate; 3 µM) | viability (Pralatrexate; 15 µM) | viability (Pacritinib; 0.024 µM) | viability (Pacritinib; 0.12 µM) | viability (Pacritinib; 0.6 µM) | viability (Pacritinib; 3 µM) | viability (Pacritinib; 15 µM) | viability (Nilotinib; 0.016 µM) | viability (Nilotinib; 0.08 µM) | viability (Nilotinib; 0.4 µM) | viability (Nilotinib; 2 µM) | viability (Nilotinib; 10 µM) | viability (AZD7762; 0.024 µM) | viability (AZD7762; 0.12 µM) | viability (AZD7762; 0.6 µM) | viability (AZD7762; 3 µM) | viability (AZD7762; 15 µM)
primary AML patient cells (S009) | 0.973 | 0.991 | 0.975 | 1.02 | 0.94 | 1.03 | 1.05 | 0.924 | 0.473 | 0.0416 | 1.05 | 1.05 | 1.08 | 1.06 | 1.02 | 0.968 | 0.872 | 0.898 | 0.831 | 0.831
primary ALL patient cells (S088) | 1.07 | 0.937 | 0.927 | 0.991 | 0.917 | 0.868 | 0.843 | 0.707 | 0.287 | 0.0205 | 1.16 | 1.16 | 1.14 | 1.22 | 1.26 | 0.488 | 0.38 | 0.256 | 0.227 | 0.189
primary MCL patient cells (S068) | 1.03 | 1.01 | 1.03 | 0.965 | 0.99 | 0.959 | 0.951 | 0.968 | 0.717 | 0.0216 | 1.16 | 1.08 | 1.14 | 1.09 | 1.27 | 0.688 | 0.491 | 0.369 | 0.248 | 0.374
primary AML patient cells (S060) | 0.822 | 0.789 | 0.832 | 0.779 | 0.8 | 1.1 | 1.19 | 1.13 | 0.277 | 0.0188 | 1.09 | 1.03 | 1.09 | 1 | 1.1 | 0.95 | 0.913 | 0.174 | 0.153 | 0.084
primary DLBCL patient cells (S082) | 1.02 | 1.15 | 0.992 | 1.08 | 1.05 | 0.963 | 0.972 | 0.916 | 0.543 | 0.0168 | 1.06 | 1.04 | 1.09 | 1.08 | 1.11 | 0.76 | 0.417 | 0.122 | 0.152 | 0.125
primary AML patient cells (S079) | 0.66 | 0.656 | 0.588 | 0.649 | 0.641 | 1.02 | 1 | 0.879 | 0.509 | 0.0186 | 1.17 | 1.11 | 1.13 | 1.11 | 1.18 | 0.748 | 0.703 | 0.727 | 0.397 | 0.208
primary BL patient cells (S005) | 0.791 | 0.726 | 0.662 | 0.709 | 0.698 | 1 | 1 | 0.879 | 0.657 | 0.241 | 1.08 | 1.02 | 1.07 | 1.03 | 1.02 | 0.806 | 0.848 | 0.717 | 0.773 | 0.622
primary MCL patient cells (S063) | 1 | 0.963 | 0.911 | 0.901 | 0.917 | 1.06 | 1.07 | 0.776 | 0.486 | 0.0171 | 1.15 | 1.09 | 1.17 | 1.15 | 1.11 | 0.635 | 0.249 | 0.16 | 0.0982 | 0.123
primary CLL patient cells (S043) | 0.925 | 0.892 | 0.876 | 0.891 | 0.836 | 0.995 | 0.918 | 0.763 | 0.426 | 0.025 | 1.17 | 1.08 | 1.12 | 1.06 | 1.22 | 0.644 | 0.572 | 0.545 | 0.501 | 0.517
primary MCL patient cells (S053) | 0.962 | 0.866 | 0.853 | 0.885 | 0.865 | 1.04 | 1.17 | 0.965 | 0.506 | 0.0844 | 1.13 | 1.04 | 1.11 | 1.08 | 1.21 | 0.65 | 0.346 | 0.271 | 0.253 | 0.219
primary FL patient cells (S022) | 1 | 0.996 | 1 | 1.04 | 1.02 | 0.96 | 1.09 | 0.998 | 0.429 | 0.0378 | 0.974 | 1.1 | 0.985 | 0.933 | 1.03 | 0.724 | 0.79 | 0.725 | 0.785 | 0.655
primary AML patient cells (S006) | 0.998 | 0.979 | 0.96 | 1.04 | 0.924 | 1.07 | 0.805 | 0.403 | 0.198 | 0.021 | 1.17 | 1.08 | 1.13 | 1.09 | 1.14 | 0.415 | 0.465 | 0.571 | 0.889 | 1.06
primary T-PLL patient cells (S008) | 1.09 | 0.978 | 0.965 | 0.982 | 0.971 | 1.02 | 1.11 | 1.03 | 0.86 | 0.0403 | 1.09 | 1.02 | 1.11 | 1.01 | 1.06 | 0.989 | 1.03 | 0.963 | 0.971 | 0.933
primary ALL patient cells (S048) | 0.993 | 0.895 | 0.868 | 0.872 | 0.844 | 0.907 | 0.786 | 0.603 | 0.591 | 0.0174 | 1.1 | 1.2 | 1.06 | 1.25 | 1.11 | 0.546 | 0.493 | 0.296 | 0.161 | 0.0819
primary CLL patient cells (S031) | 1.1 | 1.08 | 1.04 | 1.03 | 1.01 | 0.865 | 0.78 | 0.483 | 0.198 | 0.0138 | 1.09 | 1.12 | 1.16 | 1.13 | 1.09 | 0.458 | 0.378 | 0.236 | 0.156 | 0.163
primary AML patient cells (S071) | 0.87 | 0.827 | 0.794 | 0.799 | 0.779 | 0.803 | 0.608 | 0.364 | 0.11 | 0.0661 | 1.18 | 1.11 | 1.21 | 1.14 | 1.23 | 0.492 | 0.454 | 0.48 | 0.672 | 0.927
primary AML patient cells (S025) | 0.845 | 0.794 | 0.814 | 0.805 | 0.783 | 0.905 | 1 | 0.848 | 0.345 | 0.0323 | 1.1 | 1.03 | 1.11 | 1.03 | 1.13 | 0.942 | 0.857 | 0.878 | 0.87 | 0.911
primary B-PLL patient cells (S016) | 0.982 | 0.945 | 0.979 | 0.909 | 1 | 0.979 | 1.07 | 0.884 | 0.692 | 0.0511 | 1.31 | 1.07 | 1.11 | 1.09 | 1.16 | 0.508 | 0.619 | 0.702 | 0.758 | 0.358
primary FL patient cells (S087) | 1.01 | 0.975 | 0.985 | 1.07 | 0.989 | 1.01 | 1.01 | 0.853 | 0.698 | 0.0383 | 0.964 | 1.07 | 1.03 | 1.05 | 1.01 | 0.719 | 0.741 | 0.768 | 0.812 | 0.772
primary AML patient cells (S012) | 1.11 | 0.816 | 0.787 | 0.912 | 0.752 | 1.07 | 1.06 | 1.04 | 0.901 | 0.0606 | 1.01 | 1.03 | 1.03 | 1.06 | 1.09 | 1 | 1.01 | 0.972 | 0.889 | 0.287
primary AML patient cells (S021) | 0.99 | 0.982 | 0.99 | 0.989 | 0.965 | 1.07 | 1 | 0.774 | 0.459 | 0.131 | 1.15 | 1.11 | 1.03 | 1.14 | 1.1 | 0.621 | 0.681 | 0.61 | 0.727 | 0.736
primary AML patient cells (S072) | 1.02 | 0.952 | 0.9 | 1.03 | 0.912 | 1 | 1.06 | 0.782 | 0.195 | 0.0242 | 1.16 | 1.11 | 1.2 | 1.13 | 1.23 | 0.762 | 0.572 | 0.514 | 0.446 | 0.33
primary AML patient cells (S091) | 0.849 | 0.986 | 0.917 | 0.798 | 0.899 | 0.924 | 0.891 | 0.732 | 0.176 | 0.0345 | 1.05 | 1.07 | 1.13 | 0.991 | 1.06 | 1.07 | 0.837 | 0.69 | 0.464 | 0.348
primary AML patient cells (S085) | 1.18 | 1.04 | 0.922 | 0.991 | 0.975 | 1.06 | 0.884 | 0.686 | 0.178 | 0.0199 | 1.07 | 1.13 | 1.13 | 1.06 | 1.18 | 0.725 | 0.835 | 0.759 | 0.824 | 0.73
primary AML patient cells (S089) | 0.514 | 0.503 | 0.517 | 0.496 | 0.485 | 0.734 | 0.803 | 0.437 | 0.0646 | 0.0405 | 1.14 | 1.05 | 0.798 | 1 | 1.18 | 0.533 | 0.444 | 0.42 | 0.41 | 0.364
primary AML patient cells (S056) | 1.21 | 1.08 | 0.847 | 0.932 | 1.12 | 0.77 | 0.831 | 0.988 | 0.132 | 0.0593 | 1.05 | 1.03 | 1.08 | 1.08 | 1.14 | 0.389 | 0.458 | 0.434 | 0.607 | 0.514
primary AML patient cells (S019) | 1.04 | 1.01 | 1.05 | 0.971 | 1.01 | 1.24 | 1.31 | 1.04 | 0.414 | 0.0953 | 1.5 | 1.4 | 1.42 | 1.37 | 1.4 | 0.832 | 0.892 | 0.766 | 0.873 | 0.767
primary AML patient cells (S002) | 1.02 | 0.828 | 0.79 | 1.07 | 0.928 | 0.955 | 0.884 | 0.814 | 0.421 | 0.274 | 1.1 | 1.24 | 1.18 | 1.23 | 1.31 | 0.79 | 0.964 | 0.647 | 0.526 | 0.38
primary AML patient cells (S055) | 0.998 | 0.942 | 0.979 | 0.918 | 0.971 | 0.98 | 1.01 | 0.959 | 0.624 | 0.0399 |  |  |  |  |  | 1.02 | 0.998 | 0.918 | 0.633 | 0.701
